This passage reports viability, T/C results from PubChem BioAssay AID2060501 (Molecular Pharmacology Branch, DTP, NCI, 2025).

Each structure is given as a SMILES string.
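Further: spheroids exposed to compounds for 7 days before readout; percent of vehicle DMSO control viability with 100% = untreated-like growth.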

The first assay has as its system 282377-053-R-J1-PDC complex spheroids, viability. The experiment in a line: Anticancer human tumor 282377-053-R-J1-PDC patient-derived colon adenocarcinoma cell line growth inhibition [GQUAD]. The conditions noted are these: second compound 0.0316 µM; first compound 3.16 µM; stronger effect = lower value. An excerpt: DNA G-quadruplex Stabilizer Agents in Combinations in Complex Spheroids
A high-throughput screen of multi-cell type tumor spheroids was designed to identify active combinations of DNA G-quadruplex stabilizer agents and targeted small molecules. Complex spheroids include a stromal component modeled by human endothelial cells (HUVEC) and fibroblasts modeled by human mesenchymal stem cells (MSCs). The concentration ranges selected for each drug and investigational agent were based upon clinically achievable concentrations if the clinical Cmax of the agent was known.
Compounds. The drugs and investigational agents: pidnarulex (CX-5461; NSC782164), APTO-253 (NSC789042), BRACO-19 (NSC847499), peposertib (NSC802822), ceralasertib (NSC780249), elimusertib (NSC800525), camonsertib (NSC841442), AZD-1390 (NSC803789), olaparib (NSC753686), talazoparib (NSC767125), ART-558 (NSC835418), sotorasib (NSC818433), MRTX-1133 (NSC836407), SN-38 (NSC673596), topotecan (NSC609699), etoposide (NSC141540), doxorubicin (NSC123127), gemcitabine (NSC613327), 5-fluorouracil (NSC19893), paclitaxel (NSC125973), vemurafenib (NSC761431), panobinostat (NSC761190), R-306465 (JNJ-16241199; NSC773264), adavosertib (NSC754352), TP-3654 (NSC805149), carboplatin (NSC241240), KSQ-4279 (NSC840948), and staurosporine (NSC755774) were obtained from the National Cancer Institute (NCI) Developmental Therapeutics Program Chemical Repository (34). The FDA-approved anticancer drug set is available from the NCI Developmental Therapeutics Program. […] The stock solutions were prepared in dimethyl sulfoxide (DMSO, Sigma-Aldrich, St. Louis, MO, cat. D2650) at 800-fold the tested concentration and stored at -70 degrees C prior to their use. All drugs and investigational agents were tested over a range starting from a high concentration at or near the clinical Cmax and decreasing in half-log increments. If the clinical Cmax for an agent had not been determined, the highest concentration tested was 10 microM.
2.3 Cell Culture. All cells were maintained in an incubator at 37 degrees C and 5% CO2 with 95% humidity. The PDC lines were cultured according to standard operating procedures established by the NCI PDMR. All PDCs were thawed and cultured in Matrigel-coated flasks prepared with a working solution of 1X Ham's F-12 nutrient mix, without supplementation (Invitrogen, cat. 11765054), 100 U/mL penicillin-streptomycin (Invitrogen, cat. 15140122), and 2.5% Matrigel (Corning Inc., cat. 354248) for the first three passages. The 857933-349-R-J2-PDC line was cultured in 6C/Colon 1B media, which includes advanced DMEM/F-12 (Thermo Fisher Scientific, cat. 12634028), 10 mM HEPES (Thermo Fisher Scientific, cat. 15630080), 1X GlutaMAX supplement (Thermo Fisher Scientific, cat. 35050061), 0.1 mg/mL primocin (InvivoGen, cat. ant-pm-2), 10% defined fetal bovine serum, heat inactivated (HyClone Laboratories Inc., cat. SH30070.03HI), 50% L-WRN conditioned media (ATCC, cat. CRL-3276), 1.25 mM N-Acetyl-L-cysteine (Sigma-Aldrich, cat. A9165), 10 mM nicotinamide (Sigma-Aldrich, cat. N0636), 1X B-27 supplement (Thermo Fisher Scientific, cat. 17504044), 1X N-2 supplement (Thermo Fisher Scientific, cat. 17502048), 10 microM Y-27632 dihydrochloride (Tocris Bioscience, cat. 1254), and 50 ng/mL human EGF recombinant protein (Thermo Fisher Scientific, cat. PHG0311). The 485176-168-R4-J1-PDC line was cultured in Panc media, which includes all 6C/Colon 1B media components plus 100 ng/mL human FGF-10 (Thermo Fisher Scientific, cat. 100-26), 500 nM SB-431542 (Selleckchem, cat. S1067), and gastrin (Tocris, cat. 3006).
[…]
What is called viability, T/C is the result in the treated group divided by that in the control group, in per cent. For `C=CC(=O)N1CCN(c2nc(=O)n(-c3c(C)ccnc3C(C)C)c3nc(-c4c(O)cccc4F)c(F)cc23)C(C)C1` (stereo unspecified) + CN(C)c1ccc(Nc2c3ccc(NC(=O)CCN4CCCC4)cc3nc3cc(NC(=O)CCN4CCCC4)ccc23)cc1, the viability, T/C is 87%.

Take `COc1cccc2c1C(=O)c1c(O)c3c(c(O)c1C2=O)CC(O)(C(=O)CO)CC3OC1CC(N)C(O)C(C)O1` (stereo unspecified) + CN(C)c1ccc(Nc2c3ccc(NC(=O)CCN4CCCC4)cc3nc3cc(NC(=O)CCN4CCCC4)ccc23)cc1: the viability, T/C was 27.7%.

The assay is the same for the next values; noted with them: second compound 0.0316 µM; first compound 10 µM; stronger effect = lower value.
Regarding `C#Cc1c(F)ccc2cc(O)cc(-c3ncc4c(N5CC6CCC(C5)N6)nc(OCC56CCCN5CC(F)C6)nc4c3F)c12` (stereo unspecified) + CN(C)c1ccc(Nc2c3ccc(NC(=O)CCN4CCCC4)cc3nc3cc(NC(=O)CCN4CCCC4)ccc23)cc1, the viability, T/C is 82.4%.

Take `C=CC(=O)N1CCN(c2nc(=O)n(-c3c(C)ccnc3C(C)C)c3nc(-c4c(O)cccc4F)c(F)cc23)C(C)C1` (stereo unspecified) + CN(C)c1ccc(Nc2c3ccc(NC(=O)CCN4CCCC4)cc3nc3cc(NC(=O)CCN4CCCC4)ccc23)cc1: the viability, T/C was 79%.

Regarding `COc1cccc2c1C(=O)c1c(O)c3c(c(O)c1C2=O)CC(O)(C(=O)CO)CC3OC1CC(N)C(O)C(C)O1` (stereo unspecified) + CN(C)c1ccc(Nc2c3ccc(NC(=O)CCN4CCCC4)cc3nc3cc(NC(=O)CCN4CCCC4)ccc23)cc1, the viability, T/C was 1.26%.

Still in this assay, the particulars now being: second compound 0.1 µM; first compound 0.0316 µM; stronger effect = lower value.
Take `C#Cc1c(F)ccc2cc(O)cc(-c3ncc4c(N5CC6CCC(C5)N6)nc(OCC56CCCN5CC(F)C6)nc4c3F)c12` (stereo unspecified) + CN(C)c1ccc(Nc2c3ccc(NC(=O)CCN4CCCC4)cc3nc3cc(NC(=O)CCN4CCCC4)ccc23)cc1: the viability, T/C was 103%.

For the molecule `C=CC(=O)N1CCN(c2nc(=O)n(-c3c(C)ccnc3C(C)C)c3nc(-c4c(O)cccc4F)c(F)cc23)C(C)C1` (stereo unspecified) + CN(C)c1ccc(Nc2c3ccc(NC(=O)CCN4CCCC4)cc3nc3cc(NC(=O)CCN4CCCC4)ccc23)cc1, the viability, T/C is 107%.

As for `COc1cccc2c1C(=O)c1c(O)c3c(c(O)c1C2=O)CC(O)(C(=O)CO)CC3OC1CC(N)C(O)C(C)O1` (stereo unspecified) + CN(C)c1ccc(Nc2c3ccc(NC(=O)CCN4CCCC4)cc3nc3cc(NC(=O)CCN4CCCC4)ccc23)cc1, the viability, T/C was 104%.

Still in this assay, the particulars now being: second compound 0.1 µM; first compound 0.1 µM; stronger effect = lower value.
As for `C#Cc1c(F)ccc2cc(O)cc(-c3ncc4c(N5CC6CCC(C5)N6)nc(OCC56CCCN5CC(F)C6)nc4c3F)c12` (stereo unspecified) + CN(C)c1ccc(Nc2c3ccc(NC(=O)CCN4CCCC4)cc3nc3cc(NC(=O)CCN4CCCC4)ccc23)cc1, the viability, T/C is 97.1%.

As for `C=CC(=O)N1CCN(c2nc(=O)n(-c3c(C)ccnc3C(C)C)c3nc(-c4c(O)cccc4F)c(F)cc23)C(C)C1` (stereo unspecified) + CN(C)c1ccc(Nc2c3ccc(NC(=O)CCN4CCCC4)cc3nc3cc(NC(=O)CCN4CCCC4)ccc23)cc1, the viability, T/C was 94.5%.

Take `COc1cccc2c1C(=O)c1c(O)c3c(c(O)c1C2=O)CC(O)(C(=O)CO)CC3OC1CC(N)C(O)C(C)O1` (stereo unspecified) + CN(C)c1ccc(Nc2c3ccc(NC(=O)CCN4CCCC4)cc3nc3cc(NC(=O)CCN4CCCC4)ccc23)cc1: the viability, T/C was 96.2%.

Still in this assay, the particulars now being: second compound 0.1 µM; first compound 0.316 µM; stronger effect = lower value.
Turning to `C#Cc1c(F)ccc2cc(O)cc(-c3ncc4c(N5CC6CCC(C5)N6)nc(OCC56CCCN5CC(F)C6)nc4c3F)c12` (stereo unspecified) + CN(C)c1ccc(Nc2c3ccc(NC(=O)CCN4CCCC4)cc3nc3cc(NC(=O)CCN4CCCC4)ccc23)cc1, the viability, T/C was 79.2%.

As for `C=CC(=O)N1CCN(c2nc(=O)n(-c3c(C)ccnc3C(C)C)c3nc(-c4c(O)cccc4F)c(F)cc23)C(C)C1` (stereo unspecified) + CN(C)c1ccc(Nc2c3ccc(NC(=O)CCN4CCCC4)cc3nc3cc(NC(=O)CCN4CCCC4)ccc23)cc1, the viability, T/C is 110%.

For the molecule `COc1cccc2c1C(=O)c1c(O)c3c(c(O)c1C2=O)CC(O)(C(=O)CO)CC3OC1CC(N)C(O)C(C)O1` (stereo unspecified) + CN(C)c1ccc(Nc2c3ccc(NC(=O)CCN4CCCC4)cc3nc3cc(NC(=O)CCN4CCCC4)ccc23)cc1, the viability, T/C was 109%.

Staying with this assay, now noted: second compound 0.1 µM; first compound 1 µM; stronger effect = lower value.
For the molecule `C#Cc1c(F)ccc2cc(O)cc(-c3ncc4c(N5CC6CCC(C5)N6)nc(OCC56CCCN5CC(F)C6)nc4c3F)c12` (stereo unspecified) + CN(C)c1ccc(Nc2c3ccc(NC(=O)CCN4CCCC4)cc3nc3cc(NC(=O)CCN4CCCC4)ccc23)cc1, the viability, T/C is 74.5%.

On to `C=CC(=O)N1CCN(c2nc(=O)n(-c3c(C)ccnc3C(C)C)c3nc(-c4c(O)cccc4F)c(F)cc23)C(C)C1` (stereo unspecified) + CN(C)c1ccc(Nc2c3ccc(NC(=O)CCN4CCCC4)cc3nc3cc(NC(=O)CCN4CCCC4)ccc23)cc1, for which the viability, T/C was 96%.
